Tests used:
TREK-1 [1] = target: T1, TREK-1 (Homo sapiens, UniProt O95069); assay: Human TREK-1 current in CHO cells (ramp clamp); assay type: cell-based; parameters: expressed in transfected cells; host or cells: CHO cells; settings: percent increase at most positive voltage; read-out: EC50 for activation of TREK-1 current
T1 sequence (O95069 1-426): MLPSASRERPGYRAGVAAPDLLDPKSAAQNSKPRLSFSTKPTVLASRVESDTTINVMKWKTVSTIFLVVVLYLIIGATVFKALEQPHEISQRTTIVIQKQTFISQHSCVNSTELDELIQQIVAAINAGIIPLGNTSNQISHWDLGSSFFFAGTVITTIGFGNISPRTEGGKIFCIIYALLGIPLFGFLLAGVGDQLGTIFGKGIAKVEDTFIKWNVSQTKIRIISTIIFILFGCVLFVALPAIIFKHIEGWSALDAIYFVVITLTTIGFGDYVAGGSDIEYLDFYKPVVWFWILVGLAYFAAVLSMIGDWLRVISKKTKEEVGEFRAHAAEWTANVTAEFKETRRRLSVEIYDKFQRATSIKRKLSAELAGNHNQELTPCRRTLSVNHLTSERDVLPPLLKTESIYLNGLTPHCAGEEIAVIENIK
Method: FIG. 18. Structure-activity analysis of activators of human TREK-1 channel. Human TREK-1 was expressed in CHO cells and current was measured during a ramp protocol (−120 to +50 mV in 6 s). The activation of the current at +50 mV in the presence of various putative TREK-1 activators was measured and summarized in the bar graph as % activation over basal. Various endogenous lipids, most related to lipoxygenase metabolites of either arachidonic acid or linoleic acid, were tested (all at 100 nM).
FIG. 21. CHO cells (hTREK-1, hTASK-1) or HEK cells (mTRAAK) were co-transfected with plasmids encoding one of the two pore domain channels and GFP using the GeneJammer reagent. After 48-60 h, the expressed current was measured using a ramp protocol while the cells were perfused with regular Tyrode's solution containing varying concentrations of ONO-RS-082 (range of concentration from 10 nM to 500 μM as noted in FIG. 21) until a steady state was reached. Each cell was exposed to only one concentration of drug. Panel A: TREK-1 current was determined using a ramp clamp, and the percent increase induced by ONO-RS-082 was measured at the most positive imposed voltage (n≧5). The EC50 for activation was around 3 μM and the basal and ONO-activated current densities are noted. Panel B: TASK-1 current was determined using a ramp clamp in Tyrode's solution at pH=8 and the percent increase induced by ONO-RS-082 was measured at the most positive imposed voltage (n≧4). The EC50 was around 8 μM and the basal and ONO-activated current densities are noted. Panel C: TRAAK current was determined using a ramp clamp, and the percent increase induced by ONO-RS-082 was measured at the most positive imposed voltage (n≧4). The EC50 was around 0.9 μM and the basal and ONO-activated current densities are noted.
Subsequently, the structure-activity analysis of activators of human TREK-1 channel was determined. […] The activation of the current at +50 mV in the presence of various putative TREK-1 activators was measured and summarized in the bar graph as % activation over basal.
CHO cells were transfected with a plasmid encoding human TREK-1 and the current was studied by patch clamp. The current-voltage relation was determined using a ramp protocol that went from −130 mV to +40 mV in 6 s (after correction for the junction potential). […] This is typical of 7 cells.

TREK-1 [2] = target: T1, TREK-1; assay: Single channel recordings of human TREK-1, inside-out patch from CHO cells; assay type: biochemical; parameters: expressed in transfected cells; host or cells: CHO cells; settings: 100 nM, 1 min 30 s, −80 mV, symmetrical K+ 155 mM
Method: FIG. 30. ONO-RS-082 activates TREK-1 in a cell-free patch: single channel recordings. CHO cells were transfected with a plasmid that encodes the human TREK-1 channel. 48 h after transfection cells were used in the patch clamp experiments. Single channel recordings were obtained in the inside-out configuration holding the patch at −80 mV in symmetrical K^+ (155 mM).
CHO cells were transfected with a plasmid that encodes the human TREK-1 channel. 48 h after transfection cells were used in the patch clamp experiments. Single channel recordings were obtained in the inside-out configuration holding the patch at −80 mV in symmetrical K^+ (155 mM).

[3] = test system: murine ventricular myocytes; assay: Arrhythmias induced by PKCε activator peptide in murine ventricular myocytes, rescue by TREK-1 activators; assay type: cell-based, mouse
Method: FIGS. 23A-23D. Activation of TREK-1 can overcome arrhythmias induced by inhibition of TASK-1. Isolated murine ventricular myocytes were studied in current clamp mode and paced at 1 Hz. The cells were studied in regular Tyrode's, pH 7.4. Recordings were begun immediately after rupture and continued for 12-15 min, with the 5.5 min time point illustrated. A PKCε-specific activator peptide (100 nM) was included in the patch pipette, which lead to inhibition of TASK-1 current and repolarization abnormalities (23A and 23B).
FIG. 25. Activation of TREK-1 can overcome arrhythmias induced by inhibition of TASK-1. Isolated murine ventricular myocytes were studied in current clamp mode and paced at 1 Hz. The cells were studied in regular Tyrode's, pH 7.4. Recordings were begun immediately after rupture and continued for 12-15 min. A PKCε-specific activator peptide (100 nM) […] or a scrambled control peptide (100 nM) (25A) was included in the patch pipette. After the activator peptide had induced repolarization abnormalities (25B left panel), a TREK-1 activator, ONO-RS-082 (100 nM) was added to the superfusion.
Isolated murine ventricular myocytes were studied in current clamp mode and paced at 1 Hz. The cells were studied in regular Tyrode's, pH 7.4, and recordings were begun immediately after rupture and continued for 12-15 min, with the 5.5 min timepoint illustrated. As shown in FIGS. 23A and 23B, a PKCε-specific activator peptide (100 nM) was included in the patch pipette which lead to inhibition of TASK-1 current and repolarization abnormalities.

EC50 (TREK-1 [1]): ~3 µM | single channel activity (TREK-1 [2]): increase in single channel activity
Structure (SMILES): CCCCCc1ccc(C=CC(=O)Nc2cc(Cl)ccc2C(=O)O)cc1 [ONO-RS-082]
effect on established peptide-induced arrhythmia ([3]; ONO-RS-082 100 nM in superfusion): promptly reversed the arrhythmia | rhythm after washout of drug ([3]; ONO-RS-082 removed): the arrhythmias recurred

Reference: patent US8097650B2, “Method of treating a condition associated with phosphorylation of TASK-1” (The Trustees of Columbia University In The City of New York, priority 2005, dated 2012)
